The test concerns Bmi-1. The experiment in a line: Sandwich ELISA Assay (Bmi-1 ELISA) in HT-1080 cells. It is filed as cell-based. In short, it runs like this:
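HT-1080 cells exposed to compound in 0.5% final DMSO for 40-48 h at 37 °C, then lysed. Bmi-1 was quantified by sandwich ELISA: mouse monoclonal capture, rabbit anti-Bmi-1 detection, HRP anti-rabbit and TMB. Read at OD450 (OD570 reference) against a recombinant GST-Bmi-1 standard curve (0-8000 pg/mL).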
In general, EC50 refers to the concentration needed to bring the measured effect to its halfway point. Low values mean greater potency, high ones weaker potency. The compound `COc1ccc(Nc2nc(-n3c(C)nc4ccc(OC)cc43)nc(N)c2F)cc1` [Cpd 249, 5-fluoro-2-(6-methoxy-2-methyl-1H-benzimidazol-1-yl)-N-(4-methoxyphenyl)pyrimidine-4,6-diamine] showed an EC50 of 10 to 100 nM.
`COc1ccc2nc(C)n(-c3nc(N)c(F)c(Nc4ccc5c(c4)OCO5)n3)c2c1` [Cpd 250, N-(1,3-benzodioxol-5-yl)-5-fluoro-2-(6-methoxy-2-methyl-1H-benzimidazol-1-yl)pyrimidine-4,6-diamine] yielded an EC50 of 10 to 100 nM.
As for `Cc1ccc(Nc2nc(-n3c(C)nc4cc([N+](=O)[O-])ccc43)nc(N)c2F)cc1` [Cpd 254, 5-fluoro-2-(2-methyl-5-nitro-1H-benzimidazol-1-yl)-N-(4-methylphenyl)pyrimidine-4,6-diamine], the figure is 10 to 100 nM.
`COc1ccc(Nc2nc(-n3c(C)nc4cc([N+](=O)[O-])ccc43)nc(N)c2F)cc1` [Cpd 255, 5-fluoro-N-(4-methoxyphenyl)-2-(2-methyl-5-nitro-1H-benzimidazol-1-yl)pyrimidine-4,6-diamine] showed an EC50 of 100 to 3000 nM.
As for `COc1ccc(Nc2nc(-n3c(C)nc4ccc(N)cc43)nc(N)c2F)cc1` [Cpd 256, 2-(6-amino-2-methyl-1H-benzimidazol-1-yl)-5-fluoro-N-(4-methoxyphenyl)pyrimidine-4,6-diamine], the figure is 10 to 100 nM; as for `Cc1nc2ccc(N)cc2n1-c1nc(N)c(F)c(Nc2ccc(OC(F)F)cc2)n1` [Cpd 257, 2-(6-amino-2-methyl-1H-benzimidazol-1-yl)-N-[4-(difluoromethoxy)phenyl]-5-fluoropyrimidine-4,6-diamine], 10 to 100 nM.
With `Cc1ccc(Nc2nc(-n3c(C)nc4ccc(N)cc43)nc(N)c2F)cc1` [Cpd 258, 2-(6-amino-2-methyl-1H-benzimidazol-1-yl)-5-fluoro-N-(4-methylphenyl)pyrimidine-4,6-diamine], the EC50 was 1 to 10 nM.
Next, `Cc1nc2cc(F)ccc2n1-c1nc(N)c(F)c(Nc2ccc(Cl)cc2)n1` [Cpd 259, N-(4-chlorophenyl)-5-fluoro-2-(5-fluoro-2-methyl-1H-benzimidazol-1-yl)pyrimidine-4,6-diamine]: 100 to 3000 nM; `Cc1nc2cc(F)ccc2n1-c1nc(N)c(F)c(Nc2ccc(Cl)c(F)c2)n1` [Cpd 260, N-(4-chloro-3-fluorophenyl)-5-fluoro-2-(5-fluoro-2-methyl-1H-benzimidazol-1-yl)pyrimidine-4,6-diamine]: 100 to 3000 nM.
For the compound `Cc1nc2ccccc2n1-c1nc(N)c(F)c(Nc2ccc(Cl)c(F)c2)n1` [Cpd 261, N-(4-chloro-3-fluorophenyl)-5-fluoro-2-(2-methyl-1H-benzimidazol-1-yl)pyrimidine-4,6-diamine], the EC50 is 10 to 100 nM.
In turn, `Cc1nc2ccc(F)cc2n1-c1nc(N)c(F)c(Nc2ccc(Cl)c(F)c2)n1` [Cpd 262, N-(4-chloro-3-fluorophenyl)-5-fluoro-2-(6-fluoro-2-methyl-1H-benzimidazol-1-yl)pyrimidine-4,6-diamine] displayed an EC50 of 10 to 100 nM.
Next, `Cc1ccc(Nc2cc(N)nc(-n3c(C)nc4ccc(F)cc43)n2)cc1` [Cpd 264, 2-(6-fluoro-2-methyl-1H-benzimidazol-1-yl)-N-(4-methylphenyl)pyrimidine-4,6-diamine]: 1 to 10 nM; `COc1ccc(Nc2cc(N)nc(-n3c(C)nc4ccc(F)cc43)n2)cc1` [Cpd 265, 2-(6-fluoro-2-methyl-1H-benzimidazol-1-yl)-N-(4-methoxyphenyl)pyrimidine-4,6-diamine]: 1 to 10 nM.
As to `CCc1nc2ccccc2n1-c1nc(N)c(F)c(Nc2ccc(C)cc2)n1` [Cpd 270, 2-(2-ethyl-1H-benzimidazol-1-yl)-5-fluoro-N-(4-methylphenyl)pyrimidine-4,6-diamine], the EC50 was in the range of 1 to 10 nM.
As to `CCc1nc2ccccc2n1-c1nc(N)c(F)c(Nc2ccc(OC)cc2)n1` [Cpd 271, 2-(2-ethyl-1H-benzimidazol-1-yl)-5-fluoro-N-(4-methoxyphenyl)pyrimidine-4,6-diamine], the EC50 lay in the range of 1 to 10 nM.
With `CCc1nc2ccccc2n1-c1nc(N)c(F)c(Nc2ccc(OC(F)(F)F)cc2)n1` [Cpd 272, 2-(2-ethyl-1H-benzimidazol-1-yl)-5-fluoro-N-[4-(trifluoromethoxy)phenyl]pyrimidine-4,6-diamine], the EC50 was 10 to 100 nM.
As for `CCc1nc2ccccc2n1-c1nc(N)c(F)c(Nc2ccc3c(c2)OCO3)n1` [Cpd 273, N-(1,3-benzodioxol-5-yl)-2-(2-ethyl-1H-benzimidazol-1-yl)-5-fluoropyrimidine-4,6-diamine], the figure is 1 to 10 nM; as for `CCc1nc2ccccc2n1-c1nc(N)c(F)c(Nc2ccc(Cl)cc2)n1` [Cpd 274, N-(4-chlorophenyl)-2-(2-ethyl-1H-benzimidazol-1-yl)-5-fluoropyrimidine-4,6-diamine], 10 to 100 nM; as for `CCc1nc2ccccc2n1-c1nc(N)c(F)c(Nc2ccc(Cl)c(F)c2)n1` [Cpd 275, N-(4-chloro-3-fluorophenyl)-2-(2-ethyl-1H-benzimidazol-1-yl)-5-fluoropyrimidine-4,6-diamine], 10 to 100 nM.
Take `Cc1ccc(Nc2nc(-n3c(C4CC4)nc4ccccc43)nc(N)c2F)cc1` [Cpd 276, 2-(2-cyclopropyl-1H-benzimidazol-1-yl)-5-fluoro-N-(4-methylphenyl)pyrimidine-4,6-diamine]: the EC50 fell in the range of 1 to 10 nM.
As for `COc1ccc(Nc2nc(-n3c(C4CC4)nc4ccccc43)nc(N)c2F)cc1` [Cpd 277, 2-(2-cyclopropyl-1H-benzimidazol-1-yl)-5-fluoro-N-(4-methoxyphenyl)pyrimidine-4,6-diamine], the EC50 is no more than 1 nM.
Next, `Nc1nc(-n2c(C3CC3)nc3ccccc32)nc(Nc2ccc(OC(F)(F)F)cc2)c1F` [Cpd 278, 2-(2-cyclopropyl-1H-benzimidazol-1-yl)-5-fluoro-N-[4-(trifluoromethoxy)phenyl]pyrimidine-4,6-diamine]: 100 to 3000 nM; `Nc1nc(-n2c(C3CC3)nc3ccccc32)nc(Nc2ccc(Cl)cc2)c1F` [Cpd 279, N-(4-chlorophenyl)-2-(2-cyclopropyl-1H-benzimidazol-1-yl)-5-fluoropyrimidine-4,6-diamine]: 10 to 100 nM; `Nc1nc(-n2c(C3CC3)nc3ccccc32)nc(Nc2ccc(Cl)c(F)c2)c1F` [Cpd 280, N-(4-chloro-3-fluorophenyl)-2-(2-cyclopropyl-1H-benzimidazol-1-yl)-5-fluoropyrimidine-4,6-diamine]: 10 to 100 nM.
For `Cc1ccc(Nc2nc(-n3c(C)nc4cc(F)ccc43)nc(N)c2F)cc1` [Cpd 281, 5-fluoro-2-(5-fluoro-2-methyl-1H-benzimidazol-1-yl)-N-(4-methylphenyl)pyrimidine-4,6-diamine], the EC50 is 1 to 10 nM.
Regarding `COc1ccc(Nc2nc(-n3c(C)nc4cc(F)ccc43)nc(N)c2F)cc1` [Cpd 282, 5-fluoro-2-(5-fluoro-2-methyl-1H-benzimidazol-1-yl)-N-(4-methoxyphenyl)pyrimidine-4,6-diamine], the EC50 was in the range of 1 to 10 nM.
Next, `Cc1nc2cc(F)ccc2n1-c1nc(N)c(F)c(Nc2ccc(OC(F)(F)F)cc2)n1` [Cpd 283, 5-fluoro-2-(5-fluoro-2-methyl-1H-benzimidazol-1-yl)-N-[4-(trifluoromethoxy)phenyl]pyrimidine-4,6-diamine]: 100 to 3000 nM.

The values above are taken from US11180483B2, “Substituted reverse pyrimidine Bmi-1 inhibitors” (PTC Therapeutics, Inc., priority 2012, dated 2021).
